Nine substances from patent US20240270821A1, “GIP/GLP1/GCG TRI-RECEPTOR AGONISTS AND USES THEREOF” (priority 2023, published 2024) can be followed below.

What all share (assay type): cell-based
Assay [1] has as its target T1, hGIPR (Homo sapiens, UniProt P48546).
T1 sequence (P48546 22-466): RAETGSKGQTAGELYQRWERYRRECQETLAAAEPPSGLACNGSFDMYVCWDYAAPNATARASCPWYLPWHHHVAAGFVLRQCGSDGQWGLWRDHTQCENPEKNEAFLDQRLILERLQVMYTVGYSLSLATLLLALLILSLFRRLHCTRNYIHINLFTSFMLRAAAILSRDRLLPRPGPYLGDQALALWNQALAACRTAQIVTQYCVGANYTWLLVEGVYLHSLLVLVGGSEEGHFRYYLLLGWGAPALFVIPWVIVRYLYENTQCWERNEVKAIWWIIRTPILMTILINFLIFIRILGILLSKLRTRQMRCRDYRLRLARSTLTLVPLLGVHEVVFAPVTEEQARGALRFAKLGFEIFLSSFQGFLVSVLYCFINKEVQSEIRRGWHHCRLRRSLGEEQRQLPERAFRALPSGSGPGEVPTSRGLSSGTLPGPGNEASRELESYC
The experiment in a line: Functional cAMP activity in the presence of 1% HSA. As to conditions: read-out: cAMP Rel EC50, hGIPR.

The target of assay [2] is T2, hGLP-1R (Homo sapiens, UniProt P43220). The experiment in a line: Functional cAMP activity in the presence of 1% HSA. The following applies: read-out: cAMP Rel EC50, hGLP-1R.
T2 sequence (P43220 24-463): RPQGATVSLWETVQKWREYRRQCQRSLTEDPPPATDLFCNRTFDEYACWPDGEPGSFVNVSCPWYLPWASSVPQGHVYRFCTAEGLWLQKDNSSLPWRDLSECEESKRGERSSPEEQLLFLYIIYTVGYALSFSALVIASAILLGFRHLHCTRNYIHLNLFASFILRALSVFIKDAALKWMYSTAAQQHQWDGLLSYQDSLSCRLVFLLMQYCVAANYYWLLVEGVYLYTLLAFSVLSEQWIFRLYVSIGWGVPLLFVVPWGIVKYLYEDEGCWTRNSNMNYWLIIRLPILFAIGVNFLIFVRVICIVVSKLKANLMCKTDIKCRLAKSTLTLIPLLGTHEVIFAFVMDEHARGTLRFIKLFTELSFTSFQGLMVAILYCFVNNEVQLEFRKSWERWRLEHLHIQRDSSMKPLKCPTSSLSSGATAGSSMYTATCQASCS
The target of another assay is human GcgR (Homo sapiens, UniProt P47871). The experiment in a line: Functional cAMP activity in the presence of 1% HSA. As to conditions: read-out: cAMP Rel EC50, hGcgR.
human GcgR, sequence (P47871 26-477): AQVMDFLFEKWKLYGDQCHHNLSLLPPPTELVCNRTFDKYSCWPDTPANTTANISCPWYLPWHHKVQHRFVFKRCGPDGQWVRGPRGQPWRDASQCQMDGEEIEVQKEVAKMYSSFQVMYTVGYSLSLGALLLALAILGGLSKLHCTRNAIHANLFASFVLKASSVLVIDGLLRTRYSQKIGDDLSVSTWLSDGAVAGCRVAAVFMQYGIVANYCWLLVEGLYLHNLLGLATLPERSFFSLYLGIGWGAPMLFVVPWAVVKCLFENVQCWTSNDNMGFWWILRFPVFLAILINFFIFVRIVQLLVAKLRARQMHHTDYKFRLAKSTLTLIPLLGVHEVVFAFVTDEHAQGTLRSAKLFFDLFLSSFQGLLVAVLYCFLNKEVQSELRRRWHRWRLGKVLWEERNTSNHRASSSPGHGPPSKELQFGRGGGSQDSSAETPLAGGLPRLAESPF
Assay [3] deals with T1, hGIPR. The experiment in a line: Functional cAMP activation in the presence of 0.1% casein (no HSA). As to conditions: read-out: Relative cAMP EC50, hGIPR.
In assay [4] the target is T2, hGLP-1R. Described as above. The following applies: read-out: Relative cAMP EC50, hGLP-1R.
Another assay concerns the target hGcgR (Homo sapiens, UniProt P47871). Described as above. The following applies: read-out: Relative cAMP EC50, hGcgR.
[5] abbreviates: in the presence of 0.1% casein (no HSA), geometric mean.
The mark [6] stands for this setting: 0.1% casein, no HSA, geometric mean.
Setting [7] is: HEK-293 clonal cell line, in the presence of 1% HSA, geometric mean of relative EC50.

Where two headings read alike, the source gives them in different places. Starred links: 1 amine or outer side, 2 acyl side, 3 side chain; linkers in the order of their positions; H or OH if unused. Non-standard residues stand in square brackets, D forms with d. Groups on a side chain read outwards from the residue. No end group written: not given here. *: point of attachment. C20 diacid = O=C(O)CCCCCCCCCCCCCCCCCCC(=O)*; C18 diacid = O=C(O)CCCCCCCCCCCCCCCCC(=O)*; αMePhe(2-F) = C[C@](N)(Cc1ccccc1F)C(=O)O; γGlu = O=C(O)[C@H](CCC(=O)[*:2])N[*:1]; αMe4Pal = C[C@](N)(Cc1ccncc1)C(=O)O; αMeY = C[C@](N)(Cc1ccc(O)cc1)C(=O)O; 4Pal = N[C@@H](Cc1ccncc1)C(=O)O; αMeL = CC(C)C[C@](C)(N)C(=O)O; Orn = NCCC[C@H](N)C(=O)O; AEEA = NCCOCCOCC(=O)O; Aib = CC(C)(N)C(=O)O
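Wherever Relative cAMP EC50, hGIPR is given: intracellular cAMP rise after 30 min at 37 °C read by HTRF against a standard curve, scaled between buffer alone (0%) and top control ligand concentration (100%), four-parameter fit.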
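Wherever Relative cAMP EC50, hGLP-1R is given: intracellular cAMP rise after 30 min at 37 °C read by HTRF, normalized between buffer only (0%) and maximal control ligand (100%), four-parameter variable-slope fit.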
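Wherever Relative cAMP EC50, hGcgR is given: intracellular cAMP rise after 30 min at 37 °C, read by HTRF against a cAMP standard curve, scaled from buffer only (0%) to maximal control ligand response (100%).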

hGcgR, sequence (P47871 26-477): as above

On to “Y[Aib]QGTFTSD[4Pal]SQ[αMeL]LDKK([γGlu-dE-dE-C18 diacid])AQ[αMe4Pal]AFIEYLIE[Aib]GPSSGAPPPSGSEE-NH2 [Example 930]”, for which the EC50 (in general, the midpoint of the concentration-response curve) turned out to be 19.9 nM on hGIPR [1]; 824 nM on hGLP-1R [2]; 1700 nM at human GcgR; 0.244 nM on hGIPR [3] (setting [5]); 11 nM on hGLP-1R [4] (setting [5]); 13 nM at hGcgR (setting [5]).
Regarding “H-Y[Aib]Q[dA]T[αMePhe(2-F)]TSD[4Pal]SI[αMeL]LD[Orn]K([AEEA-γGlu-C18 diacid])AQ[αMe4Pal]EFI[dE][αMeY]LVEGGPSSGAPPPSGS-NH2 [Example 1205]”, the EC50 at hGIPR [1] stood at 16.3 nM; on hGLP-1R [2] it was 50 nM; on human GcgR it was 325 nM; at hGIPR [3] (setting [6]), 0.152 nM; at hGLP-1R [4] (setting [6]) it was 0.523 nM; at hGcgR (setting [6]), 3.33 nM.
For the substance “H-Y[Aib]QGT[αMePhe(2-F)]TSDYSILLDKQAQK([AEEA-AEEA-γGlu-C20 diacid])AFIEYLLEGGPSSGEPPPSEG-NH2 [Example 345]”, the EC50 worked out at 15.3 nM on hGIPR [1]; 256 nM at hGLP-1R [2]; 3300 nM at human GcgR; 0.0377 nM at hGIPR [3] (setting [5]); 0.658 nM on hGLP-1R [4] (setting [5]); 11.3 nM on hGcgR (setting [5]).
Regarding “Y[Aib]QGT[αMePhe(2-F)]TSD[4Pal]SI[αMeL]LD[Orn]K([AEEA-AEEA-γGlu-C18 diacid])AQ[αMe4Pal]EFI[dE][αMeY]LLEGGPSSGAPPPSGE-NH2 [Example 613]”, the EC50 stood at 0.791 nM at hGIPR [1]; 81.6 nM on hGLP-1R [2]; 1410 nM at human GcgR; 0.00925 nM at hGIPR [3]; 0.698 nM at hGLP-1R [4]; 20.4 nM on hGcgR.
In the case of “H-Y[Aib]QGTFTSD[4Pal]S[Orn][αMeL]LD[Orn]K([γGlu-γGlu-C18 diacid])AQ[αMe4Pal]EFIE[αMeY]LLEGGPSSGAPPPSGSEE-NH2 [Example 976]”, the EC50 was 82.7 nM at hGIPR [1]; 2860 nM on hGLP-1R [2]; 848 nM on human GcgR; 0.441 nM at hGIPR [3] (setting [5]); 21.8 nM at hGLP-1R [4] (setting [5]); 8.75 nM at hGcgR (setting [5]).
As for “H-Y[Aib]QGTFTSDYSI[αMeL]LDKQAAK([AEEA-AEEA-γGlu-C20 diacid])QFVEWLIAGGPSSGEPPPAEG-NH2 [Example 332]”, the EC50 on hGIPR [1] stood at 78.2 nM; at hGLP-1R [2], 298 nM; at human GcgR, 3340 nM; at hGIPR [3] (setting [5]), 0.413 nM; at hGLP-1R [4] (setting [5]), 1.24 nM; at hGcgR (setting [5]) it was 11.8 nM.
Consider “Y[Aib]QGTFTSD[4Pal]SR[αMeL]LDKK([AEEA-γGlu-C18 diacid])AQ[αMe4Pal]AFIEYLIEGGESSGAPPPSGS-NH2 [Example 792]”, for which the EC50 on hGIPR [1] was determined as 108 nM; on hGLP-1R [2] it was 619 nM; at human GcgR, 376 nM; on hGIPR [3] (setting [5]), 0.55 nM; at hGLP-1R [4] (setting [5]), 2.99 nM; on hGcgR (setting [5]) it was 1.91 nM.
Consider “H-Y[Aib]QGTFTSDFS[Orn][αMeL]LD[Orn]K([γGlu-γGlu-C18 diacid])AQ[Aib]AFIE[αMeY]LLEGGPSSGAPPPGGSEE-NH2 [Example 1049]”, for which the EC50 on hGIPR [1] (setting [7]) was 56.2 nM; at hGLP-1R [2] (setting [7]), 780 nM; on human GcgR (setting [7]), 1280 nM; on hGIPR [3] (setting [5]) it was 0.24 nM; at hGLP-1R [4] (setting [5]), 2.23 nM; on hGcgR (setting [5]), 6.33 nM.
Consider “H-Y[Aib]QGTFTSDFS[Orn][αMeL]LDKK([AEEA-γGlu-C20 diacid])AQ[Aib]AFIEYLLAGGPSSGAPPPSGD-NH2 [Example 81]”, for which the EC50 turned out to be 50.2 nM at hGIPR [1]; 430 nM on hGLP-1R [2]; 1580 nM on human GcgR; 0.246 nM at hGIPR [3] (setting [5]); 2.19 nM at hGLP-1R [4] (setting [5]); 7.78 nM on hGcgR (setting [5]).
